For orientation: MIC means the least concentration at which growth counts as inhibited. One may read the EC50 as the concentration at which the effect is half-maximal.

The record followed here is publication PMC9486951, “Tetramate Derivatives by Chemoselective Dieckmann Ring Closure of threo-Phenylserines and Their Antibacterial Activity” (The Journal of Organic Chemistry, 2022).

Read-outs that look alike come from different tables or passages of the source.

In assay [1] the test system is methicillin-resistant Staphylococcus aureus (MRSA). Put plainly: MIC determination by broth dilution assay against MRSA. It is filed as cell-based. As for the experimental part:
With access to these derivatives routinely available, an assessment of their antibacterial activity was made by measuring minimum inhibitory concentration (MIC) values (Table S6) against two example organisms, methicillin-resistant Staphylococcus aureus (MRSA) and E. coli. […] By contrast, a more polar substituent at the C7-position (pyran 12t) compromised the antibacterial activity (125 μg/mL). […] Compound 13b had the same activity as 12g at 1.00 μg/mL. Overall, increasing lipophilicity corresponded to higher potency against MRSA. […]
Screening of compounds were performed by Oxford Antibiotic Group, Austria. For MIC determination by broth dilution assay, the samples were tested in a primary 96 well plates screening assay, in duplicate. The compounds were diluted in Mueller Hinton Broth (MHB) for bacterial screening to a stock solution of 1000 µg/mL, serial diluted and overlaid with a microbe solution in a concentration of 10^4 CFU/ml. […]
In general terms: In broth dilution the organism is exposed to a series of concentrations in liquid medium.

For a further assay, the system named is Hela cell line. Put plainly: Cytotoxicity assay (Alamar blue), Hela. In kind it is cell-based, human. How it is done:
(§1) The selectivity of these compounds for activity against prokaryotic cells over mammalian cells was analyzed by considering their cytotoxicity against Hela, heK-293, CaCo, and MDCK […] cell lines, allowing estimation of the therapeutic ratio [EC50Hela cell line/MIC(S. aureus)] (Table 3). […]
Screening of compounds were performed by Oxford Antibiotic Group, Austria. For MIC determination by broth dilution assay, the samples were tested in a primary 96 well plates screening assay, in duplicate. The compounds were diluted in Mueller Hinton Broth (MHB) for bacterial screening to a stock solution of 1000 µg/mL, serial diluted and overlaid with a microbe solution in a concentration of 10^4 CFU/ml. The plates were incubated for […]
(§2) For cytotoxicity testing, the synthesized compounds were tested against four different cell lines: HeLa, HEK 293, MDCK and CaCo. The cells were seeded in a 96 well plate and incubated until a confluence of 80% was achieved (under physiological conditions - 37°C, 5% CO2 and 95% humidity). The samples were tested by serial dilution in triplicates with starting concentration of 250 µg/mL. After 24 and 48 hours the survival of cells was evaluated by microscope and measured with Alamar blue. IC50 values were obtained from the calibration curves. […]
(In general: Alamar Blue is a resazurin reagent that responds to reducing activity.)

The subject of a further assay is heK-293 cell line. Put plainly: Cytotoxicity assay (Alamar blue), heK-293. It is filed as cell-based. The following applies: Homo sapiens, HEK293; read-out: cell lines EC50, heK-293. As for the experimental part:
as §1
(§3) Screening of compounds were performed by Oxford Antibiotic Group, Austria. […]
as §2

The test system of a further assay is CaCo cell line. Put plainly: Cytotoxicity assay (Alamar blue), CaCo. It is filed as cell-based. The note with it: Homo sapiens; read-out: cell lines EC50, CaCo. As for the experimental part:
as §1, §3, §2

The next assay has as its system MDCK cell line. Kind of assay: Cytotoxicity assay (Alamar blue), MDCK. It is filed as cell-based. The note with it: read-out: cell lines EC50, MDCK. As for the experimental part:
as §1, §3, §2

Assay [2] relates to MRSA. Kind of assay: Broth dilution MIC against MRSA with added metal cations. It is filed as cell-based. The note with it: Staphylococcus aureus, addition of Fe, Ca, Mg and Zn at concentration as found in blood. How it is done: (§4) As tetramic acids are well-known metal chelators,[1],[20] of interest was to investigate whether this loss of activity was due to metal chelation or plasma protein binding (PPB), specifically with human serum albumin (HSA).[17],[18] To answer this question, bicyclic tetramate 12a was tested against MRSA using a broth dilution assay, under standard conditions and with the addition of similar metal cations (Fe, Ca, Mg, and Zn) with concentration as that found in blood, respectively. […] Bicyclic tetramate 12a was also tested against MRSA using a broth dilution assay, under standard conditions but in the presence of one-third the serum albumin concentration as that found in human blood. […] A review has shown that PPB strongly correlates with increased hydrophobicity, and this might point to a problem with the tetramate class, which clearly depends upon hydrophobicity for their antibacterial activity, as noted above.[21]

Assay [3] relates to MRSA. Put plainly: Broth dilution MIC against MRSA in the presence of serum albumin. It is filed as cell-based. The note with it: Staphylococcus aureus, one-third the serum albumin concentration found in human blood. As for the experimental part:
as §4

As to `CC(C)(C)[C@@H]1O[C@H](c2ccccc2)[C@H]2C(O)=C(C(=O)NC34CC5CC(CC(C5)C3)C4)C(=O)N21` (mixture of isomers) [12a], the MIC in assay [1] (Staphylococcus aureus, MRSA, Table 3, read-out: MIC(S. aureus)) was 0.3 µg/mL; in assay [1] (Staphylococcus aureus, MRSA, Table S5, against S. aureus, read-out: MIC), 0.25 µg/mL; in assay [1] (Staphylococcus aureus, MRSA, broth dilution assay, standard conditions (control of metal cation experiment), read-out: MIC against MRSA, standard conditions), 0.49 µg/mL; in assay [1] (Staphylococcus aureus, MRSA, broth dilution, read-out: MIC against MRSA), 0.25 µg/mL; in assay [1] (Table S6), 0.25 µg/mL; against MRSA [2] it was 0.24 µg/mL. Also, the MIC in the assay with MRSA [3] was 7.81 µg/mL. In addition, in the assay on Hela cell line (EC50 Hela cell line/MIC(S. aureus)), the “therapeutic ratio / selectivity for bacteria over the Hela cell line” value was 26 fold. In addition, the EC50 in the assay on Hela cell line (Homo sapiens, HeLa, read-out: cell lines EC50, Hela) turned out to be 7.8 µg/mL; with heK-293 cell line, 31.3 µg/mL; with CaCo cell line, 15.6 µg/mL; with MDCK cell line it was 7.8 µg/mL.
